The target in data set [1] is Hematopoietic prostaglandin D synthase (Homo sapiens, UniProt O60760). Description: Inhibition of HPGDS (unknown origin).
Data set [2] concerns the target T1, CYP3A4 (Homo sapiens, UniProt P08684). Description: Inhibition of CYP3A4 in human liver microsomes assessed as residual activity using midazolam as substrate relative to control. The format is ADME. As to conditions: probe midazolam; call rule not given here. Also noted: concentration or dose not given beside the values.
The target of data set [3] is T2, Cytochrome P450 3A4 (Homo sapiens, UniProt P08684). As to the kind of experiment: (§1) Inhibition of recombinant human CYP3A4 assessed as residual activity using testosterone as substrate relative to control. The class given is ADME. As to conditions: recombinant enzyme.
Data set [4] has as its target T2, Cytochrome P450 3A4. Description: (§2) Inhibition of recombinant human CYP3A4 assessed as residual activity using midazolam as substrate relative to control. The settings on record: recombinant enzyme. The class given is ADME.
In data set [5] the target is T1, CYP3A4. Description: Inhibition of CYP3A4 in human liver microsomes assessed as residual activity using testosterone as substrate relative to control. Also noted: concentration or dose not given beside the values. The settings on record: probe testosterone. The format is ADME. On the technique in general: Liver microsomes are vesicles of endoplasmic reticulum, rich in cytochrome P450 enzymes.

The target in data set [6] is T2, Cytochrome P450 3A4. As to the kind of experiment: Mechanism based inactivation of recombinant human CYP3A4 assessed as apparent partition ratio by measuring ratio of number of inactivator molecules that get metabolized to number of enzyme molecules inactivated using midazolam as substrate. The format is ADME.
The target of data set [7] is T1, CYP3A4. The data set is described as §1. The format is ADME. As to conditions: recombinant human CYP3A4, probe testosterone.
Data set [8] addresses T1, CYP3A4. Described as §2. The class given is ADME. As to conditions: recombinant human CYP3A4, probe midazolam.
The target of data set [9] is T2, Cytochrome P450 3A4. Description: Mechanism based inactivation of recombinant human CYP3A4 assessed as apparent partition ratio by measuring ratio of number of inactivator molecules that get metabolized to number of enzyme molecules inactivated using testosterone as substrate. The format is ADME.
Data set [10] deals with T2, Cytochrome P450 3A4. Description: Mechanism based inactivation of CYP3A4 in human liver microsomes assessed as apparent partition ratio by measuring ratio of number of inactivator molecules that get metabolized to number of enzyme molecules inactivated using testosterone as substrate. The format is ADME.
Data set [11] has as its target T2, Cytochrome P450 3A4. Description: Mechanism based inactivation of CYP3A4 in human liver microsomes assessed as apparent partition ratio by measuring ratio of number of inactivator molecules that get metabolized to number of enzyme molecules inactivated using midazolam as substrate. The format is ADME.

IC50, activity and Ratio data for seven compounds are collected here from ChEMBL document CHEMBL4229534, “Amelioration of mechanism-based inactivation of CYP3A4 by a H-PGDS inhibitor” (Bioorg Med Chem Lett, 2018).

T1 sequence (P08684 whole entry): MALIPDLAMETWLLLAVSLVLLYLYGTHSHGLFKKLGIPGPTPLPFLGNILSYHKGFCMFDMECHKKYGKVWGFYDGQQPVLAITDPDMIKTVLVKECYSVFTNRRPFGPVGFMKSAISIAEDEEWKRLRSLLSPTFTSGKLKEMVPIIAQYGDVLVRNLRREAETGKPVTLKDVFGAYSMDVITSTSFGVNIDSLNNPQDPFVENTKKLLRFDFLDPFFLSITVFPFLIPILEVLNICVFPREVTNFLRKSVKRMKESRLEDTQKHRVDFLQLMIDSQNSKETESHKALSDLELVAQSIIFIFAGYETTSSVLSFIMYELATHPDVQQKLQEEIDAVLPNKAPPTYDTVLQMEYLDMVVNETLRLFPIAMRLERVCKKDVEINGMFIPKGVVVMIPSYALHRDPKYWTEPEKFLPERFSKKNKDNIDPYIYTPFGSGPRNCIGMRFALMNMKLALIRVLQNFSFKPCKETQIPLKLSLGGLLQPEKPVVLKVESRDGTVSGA
T2 sequence (P08684 whole entry): as above
Hematopoietic prostaglandin D synthase, sequence (O60760 whole entry): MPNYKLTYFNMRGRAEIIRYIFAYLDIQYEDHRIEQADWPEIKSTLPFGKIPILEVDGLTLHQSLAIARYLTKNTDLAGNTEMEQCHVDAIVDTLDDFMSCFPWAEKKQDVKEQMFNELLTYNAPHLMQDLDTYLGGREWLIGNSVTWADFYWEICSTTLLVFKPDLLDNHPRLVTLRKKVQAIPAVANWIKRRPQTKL

As a reminder, the IC50 is the concentration at which inhibition is half-maximal. In the case of `CC(C)(CO)NS(=O)(=O)c1cccc(CNC(=O)c2cnc(-c3cccc(F)c3)nc2)c1`, the IC50 in [1] stood at 23 nM.

As to `Cc1nc(-c2ncccn2)ncc1C(=O)Nn1ccc2c(C(F)(F)F)cccc21`, the activity is 95% in data set [2], “Not Active” in data set [3], “Not Active” in [4] and 90% in [5]. For the same compound, the IC50 in data set [1] stood at 8 nM.

As for `Cc1nc(-c2ccccn2)ncc1C(=O)Nn1ccc2c(C(F)(F)F)cccc21`, the results for the Ratio in [6] and in [9] were 1119 and 842, respectively. For the same compound, the activity in data set [2] amounted to 100%; in data set [7], 59%; in [8], 57%; in data set [5], 91%. Moreover, the IC50 in [1] came to 10 nM.

For `Cc1nc(-c2ccccn2)ncc1C(=O)Nn1cc(C)c2nc(F)ccc21`, the activity in data set [2] was found to be 79%; in data set [5], 91%. Also, the midpoint of inhibition in data set [1], the IC50, lay at 6 nM.

For the compound `Cc1nc(-c2ccccn2)ncc1C(=O)Nn1cc(C)c2cc(F)ccc21`, the Ratio in data set [10] is 160 to 167; in data set [11], 170 to 173. The activity in [2] was 30%; in data set [5] it was 20%.

Turning to `CNS(=O)(=O)c1cccc(CNC(=O)c2cnc(-c3cccc(F)c3)nc2C)c1`, the 50% inhibitory concentration (IC50) in data set [1] is 9.5 nM.

For the compound `COc1ccc2c(n1)c(C)cn2NC(=O)c1cnc(-c2ccccn2)nc1C`, the Ratio in [6] came to 326; in data set [11] it was 338; in [9], 460. Also, the activity in data set [2] was 57%; in data set [7] it was 22%; in data set [8], 19%; in data set [5], > 70%. Half-maximal inhibition in [1] (IC50) was put at 3 nM.
